Data as given in patent US20050277612A1, “Methods, compositions and compound assays for inhibiting amyloid-beta protein production” (priority 2004, published 2005).

How the values were obtained:
SPHK2 RNA = SPHK2 RNA levels via real time PCR in KD virus infected cells; format: cell-based, Homo Sapiens; settings: infected SH-SY5Y cells, normalized to household keeping genes (GAPDH)
Source text: Upon identification of protein kinase involved of APP processing, it is essential to evaluate whether the kinase is expressed in the tissue and cells of interest. This can be achieved by measuring RNA and/or protein levels. In recent years, RNA levels are being quantified through real time PCR technologies, whereby the RNA is first transcribed to cDNA and then the amplification of the cDNA of interest is monitored during a PCR reaction. The amplification plot and the resulting Ct value are indicators for the amount of RNA present in the sample. To assess whether SPHK cDNA is expressed in the human brain, real time PCR with GAPDH specific primers and specific primers for polynucleotides coding for the SPHK polypeptide (Table 3) is performed on human total brain, human cerebral cortex, and human hippocampal total RNA (BD Biosciences). GAPDH RNA is detected with a Taqman probe, while for the polynucleotides of the invention SybrGreen is used. 40 ng of RNA is transcribed to DNA using the MultiScribe Reverse Transcriptase (50 U/μl) enzyme (Applied BioSystems). […]
(§1) Adenoviral knock down constructs are used to transduce mouse, rat or human primary neuronal cells and/or cell lines (e.g. HEK293, SH-SY5Y, IMR-32, SK-N—SH, SK-N-MC, H4, CHO, COS, HeLa) stably over-expressing APPwt or not. […] In addition, RNA is isolated from these infected cells and SPHK2 RNA levels are determined via real time PCR. […]

[1] = system: amyloid beta 1-42 levels in the conditioned medium of SH-SY5Y cells; experiment: Amyloid beta 1-42 ELISA after adenoviral knock down of SPHK2; format: cell-based; settings: SH-SY5Y cells co-infected with adenoviruses expressing APPwt and the KD sequence, compared to GL2 KD virus infected cells
Description: Cells seeded in collagen-coated plates at a cell density of 15000 cells/well (384 well plate) in DMEM (10% FBS), are infected 24 h later with 1 μl or 0.2 μl of adenovirus (corresponding to an average multiplicity of infection (MOI) of 120 and 24 respectively). The following day, the virus is washed away and DMEM (25 mM Hepes; […]) is added to the cells. Amyloid-beta peptides are allowed to accumulate during 24 h. The ELISA plate is prepared by coating with a capture antibody (JRF/cAbeta42/26) (obtained from M Mercken, Johnson and Johnson Pharmaceutical Research and Development, B-2340 Beerse, Belgium) overnight in buffer 42 (Table 2) at a concentration of 2.5 μg/ml. The excess capture antibody is washed away the next morning with PBS and the ELISA plate is then blocked overnight with casein buffer (see Table 2) at 4° C. […] Following the removal of excess detection antibody by a wash with PBS-Tween20 and PBS, HRP activity is detected via addition of luminol substrate (Roche), which is converted into a chemiluminescent signal by the HRP enzyme. […]
as §1

Sequence: ACTTCTGCATCTACACCTACC [SEQ ID NO: 6]
- SPHK2 RNA levels (SPHK2 RNA): reduced
- amyloid beta 1-42 levels in the conditioned medium [1]: reduction
